Source: PMC6848745 (Psychopharmacology, 2018)
Where “and” joins values, the source holds several entries; their conditions need not be identical. Equal values may be shown once.

Experiments:
5-HT2A [1] = biological target: T1, 5-HT2A (Homo sapiens, UniProt P28223); test: Gq-mediated calcium flux in HEK293 cells, h5-HT2A; assay type: cell-based
5-HT2B [2] = biological target: T2, 5-HT2B (Homo sapiens, UniProt P41595); test: Gq-mediated calcium flux in HEK293 cells, h5-HT2B; assay type: cell-based
T2 sequence (P41595 whole entry): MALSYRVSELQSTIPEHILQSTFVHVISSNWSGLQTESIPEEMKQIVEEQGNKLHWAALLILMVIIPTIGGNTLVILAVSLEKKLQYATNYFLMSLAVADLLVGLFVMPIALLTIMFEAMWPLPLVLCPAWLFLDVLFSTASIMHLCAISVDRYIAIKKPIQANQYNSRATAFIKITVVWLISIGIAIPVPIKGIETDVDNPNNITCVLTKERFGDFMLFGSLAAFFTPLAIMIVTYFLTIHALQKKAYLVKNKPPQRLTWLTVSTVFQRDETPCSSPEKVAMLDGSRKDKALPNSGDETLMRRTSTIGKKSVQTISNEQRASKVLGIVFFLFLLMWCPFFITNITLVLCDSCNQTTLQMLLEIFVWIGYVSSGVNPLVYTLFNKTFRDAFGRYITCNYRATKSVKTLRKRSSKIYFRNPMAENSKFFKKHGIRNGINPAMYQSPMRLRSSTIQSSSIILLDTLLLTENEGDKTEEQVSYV

human 5-HT2C INI = biological target: T3, human 5-HT2C INI (Homo sapiens, UniProt P28335); test: Gq-mediated calcium flux in HEK293 cells, h5-HT2C; assay type: cell-based
T3 sequence (P28335 33-458): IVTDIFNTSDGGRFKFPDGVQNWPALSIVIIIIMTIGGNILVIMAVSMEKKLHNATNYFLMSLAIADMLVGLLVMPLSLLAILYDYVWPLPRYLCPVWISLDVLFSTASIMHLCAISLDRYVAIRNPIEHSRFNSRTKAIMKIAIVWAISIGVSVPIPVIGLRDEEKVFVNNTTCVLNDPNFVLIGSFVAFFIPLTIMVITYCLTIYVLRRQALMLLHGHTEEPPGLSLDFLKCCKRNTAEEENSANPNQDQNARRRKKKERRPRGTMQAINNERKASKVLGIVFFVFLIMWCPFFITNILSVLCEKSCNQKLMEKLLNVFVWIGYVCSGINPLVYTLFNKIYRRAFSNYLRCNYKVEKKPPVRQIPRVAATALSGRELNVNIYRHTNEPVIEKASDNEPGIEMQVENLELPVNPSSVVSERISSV

C57BL/6J mice [3] = test: Head twitch response; assay type: in vivo, mouse
β1 [4] = biological target: β1 (Homo sapiens, UniProt P08588); test: NIMH PDSP competitive binding, β1; details: primary binding assay
Sequence of β1 (Homo sapiens, UniProt P08588) (P08588 whole entry): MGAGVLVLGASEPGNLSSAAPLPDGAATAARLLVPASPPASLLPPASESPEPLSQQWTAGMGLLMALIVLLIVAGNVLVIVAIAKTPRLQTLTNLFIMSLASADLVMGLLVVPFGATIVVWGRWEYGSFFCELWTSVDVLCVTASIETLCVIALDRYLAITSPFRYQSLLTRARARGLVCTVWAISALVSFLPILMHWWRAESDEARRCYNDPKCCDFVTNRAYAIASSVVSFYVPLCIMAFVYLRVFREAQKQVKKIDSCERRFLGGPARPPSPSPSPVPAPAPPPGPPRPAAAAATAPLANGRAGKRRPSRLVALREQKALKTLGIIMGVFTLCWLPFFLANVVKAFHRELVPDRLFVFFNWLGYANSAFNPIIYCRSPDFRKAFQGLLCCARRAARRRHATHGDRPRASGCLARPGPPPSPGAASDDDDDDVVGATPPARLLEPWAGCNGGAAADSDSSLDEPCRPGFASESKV

β2 [5] = biological target: β2 (Homo sapiens, UniProt P07550); test: NIMH PDSP competitive binding, β2
Sequence of β2 (Homo sapiens, UniProt P07550) (P07550 whole entry): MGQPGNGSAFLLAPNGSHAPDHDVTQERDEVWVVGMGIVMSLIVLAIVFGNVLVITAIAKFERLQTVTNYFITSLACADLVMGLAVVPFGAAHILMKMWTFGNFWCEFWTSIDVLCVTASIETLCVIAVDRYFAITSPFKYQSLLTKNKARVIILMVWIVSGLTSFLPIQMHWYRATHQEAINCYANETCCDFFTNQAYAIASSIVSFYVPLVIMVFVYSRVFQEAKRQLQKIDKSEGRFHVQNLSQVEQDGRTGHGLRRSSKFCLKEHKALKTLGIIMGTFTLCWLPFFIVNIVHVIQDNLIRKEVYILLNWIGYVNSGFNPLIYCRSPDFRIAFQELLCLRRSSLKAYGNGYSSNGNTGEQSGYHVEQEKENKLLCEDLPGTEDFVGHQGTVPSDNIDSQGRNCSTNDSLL

β3 = β3 (Homo sapiens, UniProt P13945); test: NIMH PDSP competitive binding, β3; details: [3H]CGP12177; cloned receptor; mean ± SEM
Sequence of β3 (P13945 whole entry): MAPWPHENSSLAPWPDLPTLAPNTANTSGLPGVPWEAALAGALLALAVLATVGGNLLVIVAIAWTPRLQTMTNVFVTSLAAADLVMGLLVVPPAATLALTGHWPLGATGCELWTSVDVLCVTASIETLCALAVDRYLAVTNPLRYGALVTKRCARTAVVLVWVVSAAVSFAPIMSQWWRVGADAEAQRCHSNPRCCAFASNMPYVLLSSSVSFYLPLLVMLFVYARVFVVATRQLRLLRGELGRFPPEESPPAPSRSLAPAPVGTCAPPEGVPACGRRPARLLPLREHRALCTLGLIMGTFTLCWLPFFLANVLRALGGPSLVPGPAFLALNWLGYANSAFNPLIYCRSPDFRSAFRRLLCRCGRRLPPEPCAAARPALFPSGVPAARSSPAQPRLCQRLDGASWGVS

D1 = D1 (Homo sapiens, UniProt P21728); test: NIMH PDSP competitive binding, D1; details: [3H]SCH23390; cloned receptor; mean ± SEM
D2 = D2 (Homo sapiens, UniProt P14416); test: NIMH PDSP competitive binding, D2; details: [3H]N-methylspiperone; cloned receptor; mean ± SEM
D3 = D3 (Homo sapiens, UniProt P35462); test: NIMH PDSP competitive binding, D3; details: [3H]N-methylspiperone; cloned receptor; mean ± SEM
Sequence of D3 (P35462 whole entry): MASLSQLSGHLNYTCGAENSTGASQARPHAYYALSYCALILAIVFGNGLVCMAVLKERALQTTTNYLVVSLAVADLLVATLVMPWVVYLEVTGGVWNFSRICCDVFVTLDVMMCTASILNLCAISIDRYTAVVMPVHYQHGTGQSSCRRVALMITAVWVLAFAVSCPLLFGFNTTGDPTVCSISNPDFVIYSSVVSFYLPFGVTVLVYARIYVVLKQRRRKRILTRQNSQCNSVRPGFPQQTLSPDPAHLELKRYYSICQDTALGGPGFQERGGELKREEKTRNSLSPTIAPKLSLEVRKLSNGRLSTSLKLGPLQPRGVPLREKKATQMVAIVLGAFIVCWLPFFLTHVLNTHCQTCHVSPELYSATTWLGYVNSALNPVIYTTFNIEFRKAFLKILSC

D4 = D4 (Homo sapiens, UniProt P21917); test: NIMH PDSP competitive binding, D4; details: [3H]N-methylspiperone; cloned receptor; mean ± SEM
D5 = D5 (Homo sapiens, UniProt P21918); test: NIMH PDSP competitive binding, D5; details: [3H]SCH23390; cloned receptor; mean ± SEM
H1 = H1 (Homo sapiens, UniProt P35367); test: NIMH PDSP competitive binding, H1
Sequence of H1 (P35367 whole entry): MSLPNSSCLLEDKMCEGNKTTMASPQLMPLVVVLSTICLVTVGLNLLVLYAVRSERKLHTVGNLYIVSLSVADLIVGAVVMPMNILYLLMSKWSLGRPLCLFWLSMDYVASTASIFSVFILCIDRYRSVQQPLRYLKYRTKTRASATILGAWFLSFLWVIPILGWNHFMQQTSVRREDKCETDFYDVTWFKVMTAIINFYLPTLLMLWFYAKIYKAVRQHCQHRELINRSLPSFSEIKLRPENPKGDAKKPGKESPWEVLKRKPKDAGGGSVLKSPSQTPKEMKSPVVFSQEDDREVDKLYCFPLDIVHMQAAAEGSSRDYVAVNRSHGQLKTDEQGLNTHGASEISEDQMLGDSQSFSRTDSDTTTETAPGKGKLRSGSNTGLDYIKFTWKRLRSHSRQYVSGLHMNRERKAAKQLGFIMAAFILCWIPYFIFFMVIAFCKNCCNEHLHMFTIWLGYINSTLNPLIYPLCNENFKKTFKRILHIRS

H2 = H2 (Homo sapiens, UniProt P25021); test: NIMH PDSP competitive binding, H2; details: [3H]tiotidine; cloned receptor; mean ± SEM
H3 = H3 (Cavia porcellus, UniProt Q9JI35); test: NIMH PDSP competitive binding, H3; details: primary binding assay
Sequence of H3 (Q9JI35 whole entry): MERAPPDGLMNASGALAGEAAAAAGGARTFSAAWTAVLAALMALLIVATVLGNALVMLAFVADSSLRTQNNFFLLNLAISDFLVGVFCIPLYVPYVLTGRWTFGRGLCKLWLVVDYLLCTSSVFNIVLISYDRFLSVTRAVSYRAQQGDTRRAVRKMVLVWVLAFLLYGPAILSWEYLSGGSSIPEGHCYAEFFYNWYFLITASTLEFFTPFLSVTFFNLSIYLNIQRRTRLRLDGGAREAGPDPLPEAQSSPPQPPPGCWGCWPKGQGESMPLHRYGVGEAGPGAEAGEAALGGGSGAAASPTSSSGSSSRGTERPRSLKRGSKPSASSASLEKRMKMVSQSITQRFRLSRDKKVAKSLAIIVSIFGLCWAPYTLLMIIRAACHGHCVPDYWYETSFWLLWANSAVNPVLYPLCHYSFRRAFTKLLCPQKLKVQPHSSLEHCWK

H4 = H4 (Homo sapiens, UniProt Q9H3N8); test: NIMH PDSP competitive binding, H4
Sequence of H4 (Q9H3N8 whole entry): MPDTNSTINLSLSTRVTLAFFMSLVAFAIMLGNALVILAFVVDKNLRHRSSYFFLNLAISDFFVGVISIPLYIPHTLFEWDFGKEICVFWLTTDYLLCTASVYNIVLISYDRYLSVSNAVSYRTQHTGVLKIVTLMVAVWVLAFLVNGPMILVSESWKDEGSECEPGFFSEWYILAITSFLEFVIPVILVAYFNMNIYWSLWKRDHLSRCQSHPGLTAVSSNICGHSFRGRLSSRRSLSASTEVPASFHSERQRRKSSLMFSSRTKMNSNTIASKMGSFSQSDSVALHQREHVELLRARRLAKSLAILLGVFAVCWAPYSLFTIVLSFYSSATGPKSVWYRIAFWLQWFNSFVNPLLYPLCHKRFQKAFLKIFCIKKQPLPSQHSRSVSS

α1A = α1A (Homo sapiens, UniProt P35348); test: NIMH PDSP competitive binding, α1A; details: [3H]prazosin; cloned receptor
Sequence of α1A (P35348 whole entry): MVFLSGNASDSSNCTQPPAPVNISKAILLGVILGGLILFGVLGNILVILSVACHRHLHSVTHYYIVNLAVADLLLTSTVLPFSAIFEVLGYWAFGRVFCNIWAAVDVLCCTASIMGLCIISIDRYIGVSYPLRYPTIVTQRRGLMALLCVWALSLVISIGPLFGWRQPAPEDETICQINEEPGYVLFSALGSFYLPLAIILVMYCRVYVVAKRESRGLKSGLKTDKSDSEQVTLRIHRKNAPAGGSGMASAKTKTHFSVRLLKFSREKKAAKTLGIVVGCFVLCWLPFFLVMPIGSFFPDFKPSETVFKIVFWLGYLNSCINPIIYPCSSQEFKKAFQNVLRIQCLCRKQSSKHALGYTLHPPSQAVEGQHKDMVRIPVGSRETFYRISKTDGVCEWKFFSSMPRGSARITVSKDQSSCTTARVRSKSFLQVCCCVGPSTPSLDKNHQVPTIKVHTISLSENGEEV

α1B = α1B (Homo sapiens, UniProt P35368); test: NIMH PDSP competitive binding, α1B; details: [3H]prazosin; cloned receptor; mean ± SEM
Sequence of α1B (P35368 whole entry): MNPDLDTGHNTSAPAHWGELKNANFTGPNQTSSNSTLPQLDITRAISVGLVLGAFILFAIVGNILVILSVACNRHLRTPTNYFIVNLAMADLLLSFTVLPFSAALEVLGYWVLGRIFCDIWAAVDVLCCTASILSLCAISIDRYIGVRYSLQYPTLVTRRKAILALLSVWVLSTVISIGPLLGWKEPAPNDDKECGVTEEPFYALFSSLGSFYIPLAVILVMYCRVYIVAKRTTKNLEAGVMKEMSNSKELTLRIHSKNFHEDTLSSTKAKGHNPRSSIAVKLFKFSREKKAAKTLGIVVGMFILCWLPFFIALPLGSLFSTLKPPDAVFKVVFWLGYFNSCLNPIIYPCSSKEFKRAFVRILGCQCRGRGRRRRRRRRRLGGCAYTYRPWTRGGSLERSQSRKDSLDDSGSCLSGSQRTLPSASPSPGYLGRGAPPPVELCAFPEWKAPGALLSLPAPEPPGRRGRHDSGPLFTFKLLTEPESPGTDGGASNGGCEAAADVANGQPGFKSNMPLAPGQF

α1D = α1D (Homo sapiens, UniProt P25100); test: NIMH PDSP competitive binding, α1D; details: [3H]prazosin; cloned receptor
α2A = α2A (Homo sapiens, UniProt P08913); test: NIMH PDSP competitive binding, α2A; details: [3H]rauwolscine; cloned receptor; mean ± SEM
α2B = α2B (Homo sapiens, UniProt P18089); test: NIMH PDSP competitive binding, α2B; details: [3H]rauwolscine; cloned receptor; mean ± SEM
α2C = α2C (Homo sapiens, UniProt P18825); test: NIMH PDSP competitive binding, α2C; details: [3H]rauwolscine; cloned receptor; mean ± SEM
5-HT6 = 5-HT6 (Homo sapiens, UniProt P50406); test: NIMH PDSP competitive binding, 5-HT6; details: [3H]LSD; cloned receptor; mean ± SEM
5-HT7 = 5-HT7 (Homo sapiens, UniProt P34969); test: NIMH PDSP competitive binding, 5-HT7; details: [3H]LSD; cloned receptor; mean ± SEM
5-HT1A = 5-HT1A (Homo sapiens, UniProt P08908); test: NIMH PDSP competitive binding, 5-HT1A; details: [3H]8-OH-DPAT; cloned receptor; mean ± SEM
5-HT1B = 5-HT1B (Homo sapiens, UniProt P28222); test: NIMH PDSP competitive binding, 5-HT1B; details: [3H]GR125743; cloned receptor; mean ± SEM
5-HT1D = 5-HT1D (Homo sapiens, UniProt P28221); test: NIMH PDSP competitive binding, 5-HT1D; details: [3H]GR125743; cloned receptor; mean ± SEM
5-HT2A [6] = biological target: T1, 5-HT2A; test: NIMH PDSP competitive binding, 5-HT2A; details: [3H]ketanserin; cloned receptor; mean ± SEM
5-HT2B [7] = biological target: T2, 5-HT2B; test: NIMH PDSP competitive binding, 5-HT2B; details: [3H]LSD; cloned receptor; mean ± SEM
5-HT2C = 5-HT2C (Homo sapiens, UniProt P28335); test: NIMH PDSP competitive binding, 5-HT2C
5-HT5A = 5-HT5A (Homo sapiens, UniProt P47898); test: NIMH PDSP competitive binding, 5-HT5A; details: [3H]LSD; cloned receptor; mean ± SEM
[8] = tested on: rats trained to discriminate saline from LSD; details: ref Huang et al. 1994, cited from earlier work; for potency in rats trained to discriminate saline from LSD: rat drug discrimination
[9] = tested on: 5-HT2A sites labeled with [3H]ketanserin; details: rat frontal cortex / forebrain homogenate; ref Huang et al. 1994; cited from earlier work
human subjects = details: cited from earlier work
C57BL/6J mice [10] = details: HTR under equivalent conditions; ref Halberstadt and Geyer 2013; cited from earlier work
H1 receptors = details: ref Nichols et al. 2002; Rickli et al. 2015; cited from earlier work
[125I]DOI-labeled sites [11] = read-out: Ki at [125I]DOI-labeled sites; ref Huang et al. 1994; cited from earlier work
α2-adrenoceptors = details: [3H]clonidine, rat cortex; ref Leysen 1989; Marona-Lewicka and Nichols 1995; cited from earlier work
β1 [12] = details: ref Nichols et al. 2002; cited from earlier work
β2 [13] = details: ref Nichols et al. 2002; cited from earlier work
[125I]DOI-labeled sites [14] = Binding to [125I]DOI-labeled sites; design: species or system rat; details: from Ki values of Huang et al. 1994
[15] = Ca2+ mobilization, HEK293 cells
[16] = percent 5-HT maximum response, mean ± SEM
[17] = IP, first 20-min of the test session

T1 sequence (P28223 whole entry): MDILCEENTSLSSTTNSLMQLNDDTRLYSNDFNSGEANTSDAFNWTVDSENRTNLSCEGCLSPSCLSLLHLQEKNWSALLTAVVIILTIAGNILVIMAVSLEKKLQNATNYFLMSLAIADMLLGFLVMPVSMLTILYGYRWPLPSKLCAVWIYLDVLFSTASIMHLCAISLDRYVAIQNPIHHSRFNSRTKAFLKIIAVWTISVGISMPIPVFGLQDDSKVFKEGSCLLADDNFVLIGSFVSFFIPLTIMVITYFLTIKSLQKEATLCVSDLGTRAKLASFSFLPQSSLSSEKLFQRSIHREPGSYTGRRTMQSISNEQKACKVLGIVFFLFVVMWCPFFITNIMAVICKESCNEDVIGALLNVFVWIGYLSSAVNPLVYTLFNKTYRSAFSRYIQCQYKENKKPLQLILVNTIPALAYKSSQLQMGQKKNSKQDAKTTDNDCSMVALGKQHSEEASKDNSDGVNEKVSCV

SMILES: CCN(C(=O)[C@@H]1C=C2c3cccc4[nH]cc(c34)C[C@H]2N(C)C1)C1CC1 [ECPLA, N-ethyl-N-cyclopropyl lysergamide]
- EC50 (5-HT2A [1]; [15]): 14.6 nM
- pEC50 ± SEM (5-HT2A [1]; [15]): 7.84 ± 0.04
- Emax % 5-HT (5-HT2A [1]; [16]): 91 % 5-HT and 91 ± 1 % 5-HT
- EC50 (5-HT2B [2]; [15]): 36.7 nM
- pEC50 ± SEM (5-HT2B [2]; [15]): 7.44 ± 0.06
- Emax % 5-HT (5-HT2B [2]; [16]): 73 % 5-HT and 73 ± 2 % 5-HT
- EC50 (human 5-HT2C INI; [15]): 183 nM
- pEC50 ± SEM (human 5-HT2C INI; [15]): 6.74 ± 0.09
- Emax % 5-HT (human 5-HT2C INI; [16]): 73 % 5-HT and 73 ± 3 % 5-HT
- HTR Counts (Mean ± SEM) (C57BL/6J mice [3]; 0.1 mg/kg IP, 30 min): 17.7 ± 2.6
- HTR Counts (Mean ± SEM) (C57BL/6J mice [3]; 0.3 mg/kg IP, 30 min): 34.6 ± 5.1
- HTR Counts (Mean ± SEM) (C57BL/6J mice [3]; 1 mg/kg IP, 30 min): 28.2 ± 2.6
- ED50, nmol/kg (95% CI) (C57BL/6J mice [3]; IP, entire 30-min test session): 317.2 (213.2–471.9) nmol/kg
- ED50, μg/kg (95% CI) (C57BL/6J mice [3]; IP, entire 30-min test session): 130.2 (87.5–193.7) μg/kg
- dose of peak HTR response (C57BL/6J mice [3]; biphasic inverted-U-shaped dose-response, IP): 0.3 mg/kg
- displacement at 10 μM (β1 [4]): < 50%
- Ki (β2 [5]; [3H]CGP12177, cloned receptor, IC50 > 10 μM in the primary binding assay): > 10000 nM
- displacement at 10 μM (β2 [5]; primary binding assay, 10 μM): < 50%
- Ki (β3): 2420 ± 639 nM
- Ki (D1): 502 ± 122 nM
- Ki (D2): 150 ± 32 nM
- Ki (D3): 104 ± 29 nM
- Ki (D4): 92.3 ± 11.9 nM
- Ki (D5): 1500 ± 386 nM
- Ki (H1; [3H]pyrilamine, cloned receptor, IC50 > 10 μM in the primary binding assay): > 10000 nM
- displacement at 10 μM (H1; primary binding assay, 10 μM): < 50%
- Ki (H2): 890 ± 137 nM
- displacement at 10 μM (H3): < 50%
- Ki (H4; [3H]histamine, cloned receptor, IC50 > 10 μM in the primary binding assay): > 10000 nM
- displacement at 10 μM (H4; primary binding assay, 10 μM): < 50%
- Ki (α1A): > 10000 nM
- Ki (α1B): 1950 ± 152 nM
- Ki (α1D): > 10000 nM
- Ki (α2A): 144 ± 64 nM
- Ki (α2B): 62.3 ± 15.1 nM
- Ki (α2C): 438 ± 118 nM
- Ki (5-HT6): 21.7 ± 4.4 nM
- Ki (5-HT7): 27.3 ± 11.5 nM
- Ki (5-HT1A): 3.2 ± 0.5 nM
- Ki (5-HT1B): 42.3 ± 8.7 nM
- Ki (5-HT1D): 12.6 ± 1.9 nM
- Ki (5-HT2A [6]): 16.5 ± 6 nM
- Ki (5-HT2B [7]): 5.3 ± 1.3 nM
- fold lower affinity than LSD for the 5-HT2C receptor (5-HT2C; ECPLA Ki 85.7 nM vs LSD Ki 30 nM): ~3 fold
- Ki (5-HT2C; [3H]mesulergine, cloned receptor, mean ± SEM): 85.7 ± 31.2 nM
- Ki (5-HT5A): 8.6 ± 4.2 nM

SMILES: CCN(C(=O)[C@@H]1C=C2c3cccc4[nH]cc(c34)C[C@H]2N(C)C1)C(C)C [EIPLA, N-ethyl-N-isopropyl lysergamide]
- fold lower potency than LSD in the rat drug discrimination paradigm [8]: ~3 fold
- fold lower affinity than LSD at [3H]ketanserin-labeled 5-HT2A sites [9]: three-fold

SMILES: CCCN(C)C(=O)[C@@H]1C=C2c3cccc4[nH]cc(c34)C[C@H]2N(C)C1 [LAMPA, N-methyl-N-propyl lysergamide]
- HTR Counts (Mean ± SEM) (C57BL/6J mice [3]; 0.1 mg/kg IP, 20 min): 15.8 ± 2.7
- HTR Counts (Mean ± SEM) (C57BL/6J mice [3]; 0.3 mg/kg IP, 20 min): 31.0 ± 2.2
- HTR Counts (Mean ± SEM) (C57BL/6J mice [3]; 1 mg/kg IP, 20 min): 19.5 ± 3.2
- HTR Counts (Mean ± SEM) (C57BL/6J mice [3]; 3 mg/kg IP, 20 min): 7.4 ± 4.3
- ED50, nmol/kg (95% CI) (C57BL/6J mice [3]; [17]): 358.3 (241.1–532.4) nmol/kg
- ED50, μg/kg (95% CI) (C57BL/6J mice [3]; [17]): 115.9 (78.0–172.2) μg/kg
- effect in hallucinogen-experienced subjects (human subjects; 100 μg p.o., six subjects, ref Abramson and Rolo 1967): no effect in four subjects and produced effects consistent with a threshold dose of LSD in two subjects

SMILES: CCN(CC)C(=O)[C@@H]1C=C2c3cccc4[nH]cc(c34)C[C@H]2N(C)C1 [LSD, (+)-Lysergic acid diethylamide]
- ED50 (C57BL/6J mice [10]): 132.8 nmol/kg
- Ki (H1 receptors): 1100 to 1500 nM
- potency in rats trained to discriminate saline from LSD [8]: 0.021 mg/kg
- Ki ([125I]DOI-labeled sites [11]): 1.43 nM
- typical oral doses (human subjects; oral, humans, ref Shulgin and Shulgin 1997): 60 to 200 µg
- Ki (α2-adrenoceptors): 37 to 82 nM
- Ki (β1 [12]): 140 nM
- Ki (β2 [13]): 740 nM

SMILES: CC(C)N(C)C(=O)[C@@H]1C=C2c3cccc4[nH]cc(c34)C[C@H]2N(C)C1 [MIPLA, N-methyl-N-isopropyl lysergamide]
- HTR Counts (Mean ± SEM) (C57BL/6J mice [3]; 0.1 mg/kg IP, 30 min): 12.3 ± 1.1
- HTR Counts (Mean ± SEM) (C57BL/6J mice [3]; 0.2 mg/kg IP, 30 min): 31.8 ± 1.9
- HTR Counts (Mean ± SEM) (C57BL/6J mice [3]; 0.4 mg/kg IP, 30 min): 26.6 ± 3.1
- ED50, nmol/kg (95% CI) (C57BL/6J mice [3]; IP, entire 30-min test session): 421.7 (360.5–493.1) nmol/kg
- ED50, μg/kg (95% CI) (C57BL/6J mice [3]; IP, entire 30-min test session): 136.4 (116.6–159.5) μg/kg
- affinity relative to LSD at [125I]DOI-labeled sites ([125I]DOI-labeled sites [14]): about 82%
- potency in rats trained to discriminate saline from LSD [8]: 0.036 mg/kg
- fold lower affinity than LSD at [3H]ketanserin-labeled 5-HT2A sites [9]: 6 fold
- Ki ([125I]DOI-labeled sites [11]): 1.75 nM
- doses producing LSD-like psychedelic effects (human subjects; human subjects, ref Shulgin 2016): 180 to 300 µg
- potency as a psychedelic in man relative to LSD (human subjects; ref Shulgin 2016): one-third
